From patent US4382892A, “Benzoxazine derivatives” (Daiichi Seiyaku Co., Ltd., priority 1980, dated 1983)
In brackets after ≈: the same amount, converted by molar mass.

What was measured:
[1] = tested on: Bacillus subtilis, ATCC 6633; test: Antibacterial activity in vitro, MIC (Table 2); assay type: cell-based; conditions: ATCC6633, MullerHinton Bouillon, 10^6/ml, 37° C., 18 hours, read-out: Minimum Inhibitory Concentration (MIC)
Description: (§1) *Determined in MullerHinton Bouillon, 10^6 /ml of bacteria were seede
(§2) and incubated at 37° C. for 18 hours.

[2] = tested on: Pseudomonas aeruginosa, 2063; test: Antibacterial activity in vitro, MIC (Table 2); assay type: cell-based; conditions: MullerHinton Bouillon, 10^6/ml, 37° C., 18 hours, read-out: Minimum Inhibitory Concentration (MIC)
Description: as §1, §2

[3] = tested on: Serratia marcescens, 13001; test: Antibacterial activity in vitro, MIC (Table 2); assay type: cell-based; conditions: MullerHinton Bouillon, 10^6/ml, 37° C., 18 hours, read-out: Minimum Inhibitory Concentration (MIC)
Description: as §1, §2

Escherichia coli NIHJ [4] = test: Antibacterial activity in vitro, MIC (Table 2); assay type: cell-based; conditions: MullerHinton Bouillon, 10^6/ml, 37° C., 18 hours, read-out: Minimum Inhibitory Concentration (MIC)
Description: as §1, §2

[5] = tested on: Enterobacter cloacae, 12001; test: Antibacterial activity in vitro, MIC (Table 2); assay type: cell-based; conditions: MullerHinton Bouillon, 10^6/ml, 37° C., 18 hours, read-out: Minimum Inhibitory Concentration (MIC)
Description: as §1, §2

[6] = tested on: Streptococcus pyogenes, G-36; test: Antibacterial activity in vitro, MIC (Table 2); assay type: cell-based; conditions: G36, MullerHinton Bouillon, 10^6/ml, 37° C., 18 hours, read-out: Minimum Inhibitory Concentration (MIC)
Description: as §1, §2

[7] = tested on: Shigella flexneri 2a, 5503; test: Antibacterial activity in vitro, MIC (Table 2); assay type: cell-based; conditions: MullerHinton Bouillon, 10^6/ml, 37° C., 18 hours, read-out: Minimum Inhibitory Concentration (MIC)
Description: as §1, §2

Proteus mirabilis, 1287 [8] = test: Antibacterial activity in vitro, MIC (Table 2); assay type: cell-based; conditions: MullerHinton Bouillon, 10^6/ml, 37° C., 18 hours, read-out: Minimum Inhibitory Concentration (MIC)
Description: as §1, §2

Proteus vulgaris, 3167 [9] = test: Antibacterial activity in vitro, MIC (Table 2); assay type: cell-based; conditions: MullerHinton Bouillon, 10^6/ml, 37° C., 18 hours, read-out: Minimum Inhibitory Concentration (MIC)
Description: as §1, §2

[10] = tested on: Staphylococcus aureus, 209 P; test: Antibacterial activity in vitro, MIC (Table 2); assay type: cell-based; conditions: MullerHinton Bouillon, 10^6/ml, 37° C., 18 hours, read-out: Minimum Inhibitory Concentration (MIC)
Description: as §1, §2

[11] = tested on: Pseudomonas sepacia, II D 5132; test: Antibacterial activity in vitro, MIC (Table 2); assay type: cell-based; conditions: IID5132, MullerHinton Bouillon, 10^6/ml, 37° C., 18 hours, read-out: Minimum Inhibitory Concentration (MIC)
Description: as §1, §2

[12] = tested on: Klebsiella pneumoniae, 501; test: Antibacterial activity in vitro, MIC (Table 2); assay type: cell-based; conditions: MullerHinton Bouillon, 10^6/ml, 37° C., 18 hours, read-out: Minimum Inhibitory Concentration (MIC)
Description: as §1, §2

[13] = tested on: Bacillus subtilis, ATCC 6633; test: Antibacterial activity in vitro, MIC (Table 1); assay type: cell-based; conditions: ATCC6633, dilution method on plate culture (heart infusion agar), 10^6/ml, 37° C., 18 hours, read-out: Minimum Inhibitory Concentration (MIC)
Description: (§3) *Determined by the standard method of the Japan Society of Chemotherapy:
(§4) dilution method on plate culture (heart infusion agar culture), 10^6
(§5) /ml of bacteria were seeded and incubated at 37° C. for 18 hours.

[14] = tested on: Pseudomonas aeruginosa, 2063; test: Antibacterial activity in vitro, MIC (Table 1); assay type: cell-based; conditions: dilution method on plate culture (heart infusion agar), 10^6/ml, 37° C., 18 hours, read-out: Minimum Inhibitory Concentration (MIC)
Description: as §3, §4, §5

[15] = tested on: Serratia marcescens, 13001; test: Antibacterial activity in vitro, MIC (Table 1); assay type: cell-based; conditions: dilution method on plate culture (heart infusion agar), 10^6/ml, 37° C., 18 hours, read-out: Minimum Inhibitory Concentration (MIC)
Description: as §3, §4, §5

Escherichia coli NIHJ [16] = test: Antibacterial activity in vitro, MIC (Table 1); assay type: cell-based; conditions: read-out: Minimum Inhibitory Concentration (MIC)
Description: as §3, §4, §5

[17] = tested on: Enterobacter cloacae, 12001; test: Antibacterial activity in vitro, MIC (Table 1); assay type: cell-based; conditions: read-out: Minimum Inhibitory Concentration (MIC)
Description: as §3, §4, §5

[18] = tested on: Streptococcus pyogenes, G-36; test: Antibacterial activity in vitro, MIC (Table 1); assay type: cell-based; conditions: G36, dilution method on plate culture (heart infusion agar), 10^6/ml, 37° C., 18 hours, read-out: Minimum Inhibitory Concentration (MIC)
Description: as §3, §4, §5

[19] = tested on: Shigella flexneri 2a, 5503; test: Antibacterial activity in vitro, MIC (Table 1); assay type: cell-based; conditions: dilution method on plate culture (heart infusion agar), 10^6/ml, 37° C., 18 hours, read-out: Minimum Inhibitory Concentration (MIC)
Description: as §3, §4, §5

[20] = tested on: Pseudomonas sepacia, II D 1340; test: Antibacterial activity in vitro, MIC (Table 1); assay type: cell-based; conditions: IID1340, dilution method on plate culture (heart infusion agar), 10^6/ml, 37° C., 18 hours, read-out: Minimum Inhibitory Concentration (MIC)
Description: as §3, §4, §5

Proteus mirabilis, 1287 [21] = test: Antibacterial activity in vitro, MIC (Table 1); assay type: cell-based; conditions: dilution method on plate culture (heart infusion agar), 10^6/ml, 37° C., 18 hours, read-out: Minimum Inhibitory Concentration (MIC)
Description: as §3, §4, §5

Proteus vulgaris, 3167 [22] = test: Antibacterial activity in vitro, MIC (Table 1); assay type: cell-based; conditions: read-out: Minimum Inhibitory Concentration (MIC)
Description: as §3, §4, §5

[23] = tested on: Staphylococcus aureus, 209 P; test: Antibacterial activity in vitro, MIC (Table 1); assay type: cell-based; conditions: dilution method on plate culture (heart infusion agar), 10^6/ml, 37° C., 18 hours, read-out: Minimum Inhibitory Concentration (MIC)
Description: as §3, §4, §5

[24] = tested on: Klebsiella pneumoniae, 501; test: Antibacterial activity in vitro, MIC (Table 1); assay type: cell-based; conditions: dilution method on plate culture (heart infusion agar), 10^6/ml, 37° C., 18 hours, read-out: Minimum Inhibitory Concentration (MIC)
Description: as §3, §4, §5

[25] = tested on: gram-negative and gram-positive bacteria (test organisms); test: Antibacterial activity (in vitro), comparison in words; assay type: cell-based; conditions: compounds of this invention versus known compounds / PPA
Description: as §3, §4, §5, §1, §2

mice = mice (i.v.)
in vivo = conditions: mouse, iv
[26] = Escherichia coli NIHJ, dilution method on plate culture (heart infusion agar), 10^6/ml, 37° C., 18 hours
[27] = Enterobacter cloacae, 12001, dilution method on plate culture (heart infusion agar), 10^6/ml, 37° C., 18 hours
[28] = Proteus vulgaris, 3167, dilution method on plate culture (heart infusion agar), 10^6/ml, 37° C., 18 hours

SMILES	MIC [1] [µg/mL]	MIC [2] [µg/mL]	MIC [3] [µg/mL]	MIC (Escherichia coli NIHJ [4]) [µg/mL]	MIC [5] [µg/mL]	MIC [6] [µg/mL]	MIC [7] [µg/mL]	MIC (Proteus mirabilis, 1287 [8]) [µg/mL]	MIC (Proteus vulgaris, 3167 [9]) [µg/mL]	MIC [13] [µg/mL]	MIC [14] [µg/mL]	MIC [15] [µg/mL]	MIC [18] [µg/mL]	MIC [19] [µg/mL]	MIC (Proteus mirabilis, 1287 [21]) [µg/mL]	MIC [23] [µg/mL]	MIC [24] [µg/mL]	MIC (Escherichia coli NIHJ [16]; [26]) [µg/mL]	MIC [17, 27] [µg/mL]	MIC (Proteus vulgaris, 3167 [22]; [28]) [µg/mL]	further results
CC1COc2c(N3CCN(C)CC3)c(Cl)cc3c(=O)c(C(=O)O)cn1c23 (stereo not drawn) [Id, 9-chloro-3-methyl-10-(4-methyl-1-piperazinyl)-7-oxo-2,3-dihydro-7H-pyrido[1,2,3-de][1,4]benzoxazine-6-carboxylic acid]	0.1 (≈ 0.265 µM)	0.78 (≈ 2.06 µM)	0.1 (≈ 0.265 µM)	≤ 0.05	≤ 0.05	12.5 (≈ 33.1 µM)	≤ 0.05	0.1 (≈ 0.265 µM)	≤ 0.05												MIC [10]: 0.2 µg/mL (≈ 0.529 µM); MIC [11]: 6.25 µg/mL (≈ 16.5 µM); MIC [12]: 0.2 µg/mL (≈ 0.529 µM)
CCn1cc(C(=O)O)c(=O)c2cnc(N3CCNCC3)nc21 [PPA, 8-ethyl-5,8-dihydro-5-oxo-2-(1-piperazinyl)-pyrido[2,3-d]pyrimidine-6-carboxylic acid, reference compound]										6.25 (≈ 20.6 µM)	25 (≈ 82.4 µM)	6.25 (≈ 20.6 µM)	> 100	1.56 (≈ 5.14 µM)	6.25 (≈ 20.6 µM)	12.5 (≈ 41.2 µM)	6.25 (≈ 20.6 µM)				MIC (Escherichia coli NIHJ [16]; Escherichia coli, 18 h): 1.56 µg/mL (≈ 5.14 µM); MIC ([17]; Enterobacter cloacae, 12001, 18 h): 1.56 µg/mL (≈ 5.14 µM); MIC [20]: 100 µg/mL (≈ 330 µM); MIC (Proteus vulgaris, 3167 [22]; Proteus vulgaris, 3167, 18 h): 1.56 µg/mL (≈ 5.14 µM); antibacterial activity (in words) [25]: much weaker than the compounds of this invention; toxicity (in words) (mice): low toxicity
CC1COc2c(N3CCN(C)CC3)c(F)cc3c(=O)c(C(=O)O)cn1c23 (stereo not drawn) [Ia, 9-fluoro-10-(4-methyl-1-piperazinyl)-3-methyl-7-oxo-2,3-dihydro-7H-pyrido[1,2,3-de][1,4]benzoxazine-6-carboxylic acid]	0.1 (≈ 0.277 µM)	0.78 (≈ 2.16 µM)	0.1 (≈ 0.277 µM)	≤ 0.05	0.1 (≈ 0.277 µM)	1.56 (≈ 4.32 µM)	≤ 0.05	0.1 (≈ 0.277 µM)	≤ 0.05	0.2 (≈ 0.553 µM)	1.56 (≈ 4.32 µM)	0.2 (≈ 0.553 µM)	1.56 (≈ 4.32 µM)	0.05 (≈ 0.138 µM)	0.1 (≈ 0.277 µM)	0.39 (≈ 1.08 µM)	0.2 (≈ 0.553 µM)	≤ 0.025	0.1 (≈ 0.277 µM)	0.05 (≈ 0.138 µM)	LD50 (in vivo): 380 mg/kg; MIC [10]: 0.39 µg/mL (≈ 1.08 µM); MIC [11]: 12.5 µg/mL (≈ 34.6 µM); MIC [12]: 0.39 µg/mL (≈ 1.08 µM)
CC1COc2c(N3CCNCC3)c(F)cc3c(=O)c(C(=O)O)cn1c23 (stereo not drawn) [Ib, 9-fluoro-3-methyl-7-oxo-10-(1-piperazinyl)-2,3-dihydro-7H-pyrido[1,2,3-de][1,4]benzoxazine-6-carboxylic acid]										0.39 (≈ 1.12 µM)	0.78 (≈ 2.25 µM)	0.78 (≈ 2.25 µM)	3.13 (≈ 9.01 µM)	0.05 (≈ 0.144 µM)	0.1 (≈ 0.288 µM)	0.39 (≈ 1.12 µM)	0.39 (≈ 1.12 µM)	≤ 0.025	0.2 (≈ 0.576 µM)	0.05 (≈ 0.144 µM)	MIC [20]: 12.5 µg/mL (≈ 36 µM)
CC1COc2c(N3CCC(O)C3)c(F)cc3c(=O)c(C(=O)O)cn1c23 (stereo not drawn) [Ic, 9-fluoro-10-(3-hydroxy-1-pyrrolidinyl)-3-methyl-7-oxo-2,3-dihydro-7H-pyrido[1,2,3-de][1,4]benzoxazine-6-carboxylic acid]										0.05 (≈ 0.144 µM)	1.56 (≈ 4.48 µM)	0.78 (≈ 2.24 µM)	0.78 (≈ 2.24 µM)	0.1 (≈ 0.287 µM)	0.1 (≈ 0.287 µM)	0.1 (≈ 0.287 µM)	0.78 (≈ 2.24 µM)	0.05 (≈ 0.144 µM)	0.2 (≈ 0.574 µM)	0.1 (≈ 0.287 µM)	
CC1CCc2c(N3CCN(C)CC3)c(F)cc3c(=O)c(C(=O)O)cn1c23 (stereo not drawn) [8-(4-methyl-1-piperazinyl)-9-fluoro-5-methyl-6,7-dihydro-1-oxo-1H,5H-benz[ij]quinolizine-2-carboxylic acid, reference compound]																					LD50 (in vivo): 135 mg/kg; toxicity (in words) (mice): comparatively high toxicity
